Values joined by “and” are separate entries in the source; they are usually repeats but may differ in a detail not shown here. Identical values can stand only once.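 Five concentrations, 48 hours, 96-well plates. Here, GI50 denotes the concentration required for 50% inhibition of growth.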 Active and inactive are the calls of the source. No stated cut-off is given here; in the data, active = GI50 up to about 1.1 µM and inactive = higher.
Key:
Assay in all cases: NCI-60 cell line screen, 48 h
RPMI-8226 = test system: RPMI-8226
NCI/ADR-RES = test system: NCI/ADR-RES
SK-MEL-2 = test system: SK-MEL-2
MCF7 = test system: MCF7
SK-OV-3 = test system: SK-OV-3
K562 = test system: K562
SF-295 = test system: SF-295
UACC-257 = test system: UACC-257
HOP-18 = test system: HOP-18
MDA-N = test system: MDA-N
TK-10 = test system: TK-10
T47D = test system: T47D
BT-549 = test system: BT-549
PC-3 = test system: PC-3
DU-145 = test system: DU-145
Hs-578T = test system: Hs-578T
MDA-MB-231 = test system: MDA-MB-231
MDA-MB-435 = test system: MDA-MB-435
SR = test system: SR
786-0 = test system: 786-0

SMILES | GI50 (RPMI-8226) | GI50 (NCI/ADR-RES) | GI50 (SK-MEL-2) | GI50 (MCF7) | GI50 (SK-OV-3) | GI50 (K562) | GI50 (SF-295) | GI50 (UACC-257) | GI50 (HOP-18) | GI50 (MDA-N) | GI50 (TK-10) | GI50 (T47D) | GI50 (BT-549) | GI50 (PC-3) | GI50 (DU-145) | GI50 (Hs-578T) | GI50 (MDA-MB-231) | GI50 (MDA-MB-435) | GI50 (SR) | GI50 (786-0)
Nc1ccn(C2OC(COP(=O)(O)Oc3ccccc3)C(O)C2O)c(=O)n1 (stereo not given) | > 100 µM (inactive) | 16.7 µM (inactive) | > 100 µM (inactive) | 13 µM (inactive) | > 100 µM (inactive) | > 70.6 µM (inactive) | > 100 µM (inactive) | > 95.9 µM (inactive) | > 74.5 µM (inactive) |  |  |  |  |  |  |  |  |  |  | 
COc1ccc(N2NC(c3ccccc3)(c3ccccc3)C(C)C2=O)cc1 (stereo not given) | > 100 µM (inactive) | 48.2 µM (inactive) | 51.8 µM (inactive) | 25.5 µM (inactive) |  | 52.1 µM (inactive) | 36.3 µM (inactive) | 51.3 µM (inactive) |  | 39.1 µM (inactive) | 86.7 µM (inactive) | 39 µM (inactive) | > 100 µM (inactive) | 30.3 µM (inactive) | > 100 µM (inactive) | 67.5 µM (inactive) | 52.1 µM (inactive) | 57.3 µM (inactive) | 96.6 µM (inactive) | 
O=C(Nc1nnc(S)[nH]1)C(=O)C(c1cnc2ccc([N+](=O)[O-])cc2n1)[N+](=O)[O-] (stereo not given) | 89.7 µM (inactive) |  |  |  | > 100 µM (inactive) | > 100 µM (inactive) | > 100 µM (inactive) | > 100 µM (inactive) | > 100 µM (inactive) |  | > 100 µM (inactive) |  |  |  |  |  |  |  | > 100 µM (inactive) | > 100 µM (inactive)
O=C1c2ccccc2C(=O)C1C(c1ccc([N+](=O)[O-])cc1)C1C(=O)c2ccccc2C1=O | 54.5 µM (inactive) |  | 91 µM (inactive) |  | > 100 µM (inactive) | > 100 µM (inactive) | > 100 µM (inactive) | 33.7 µM (inactive) | > 100 µM (inactive) |  | > 100 µM (inactive) |  |  |  |  |  |  |  | 28.2 µM (inactive) | > 100 µM (inactive)
c1cc(CNC2C3CCC(C3)C2c2c[nH]c3ccccc23)cc(CNC2C3CCC(C3)C2c2c[nH]c3ccccc23)c1 (stereo not given) | 0.207 µM (active) |  | 1.57 µM (inactive) and 1.91 µM (inactive) | 0.205 µM (active) | 1.85 µM (inactive) and 1.8 µM (inactive) | 155 nM (active) and 203 nM (active) | 1.73 µM (inactive) and 1.46 µM (inactive) |  |  |  | 1.73 µM (inactive) and 1.94 µM (inactive) | 1.75 µM (inactive) and 1.74 µM (inactive) | 1.73 µM (inactive) and 1.75 µM (inactive) | 1.6 µM (inactive) and 1.64 µM (inactive) | 1.57 µM (inactive) and 1.3 µM (inactive) | 1.43 µM (inactive) and 1.62 µM (inactive) | 1.59 µM (inactive) and 1.51 µM (inactive) | 658 nM (active) and 637 nM (active) | 258 nM (active) and 186 nM (active) | 
COc1ccc(C2SC(=N)Nc3c2c(C)nn3C(=O)c2ccccc2O)cc1 (stereo not given) | 1.56 µM (inactive) | 2.12 µM (inactive) | 2.57 µM (inactive) | 1.61 µM (inactive) | 5.32 µM (inactive) | 0.45 µM (active) | 3.98 µM (inactive) | 2.81 µM (inactive) |  | 0.843 µM (active) |  | 8.99 µM (inactive) | 1.16 µM (inactive) | 3.81 µM (inactive) |  | 0.49 µM (active) | 0.986 µM (active) | 0.455 µM (active) |  | 1.31 µM (inactive)
Oc1ccc(Br)cc1/C=N/C1CCCCC1 | 28.1 µM (inactive) | 38.7 µM (inactive) | 25.1 µM (inactive) | 14.6 µM (inactive) | 55.3 µM (inactive) | 17.7 µM (inactive) | 41.8 µM (inactive) | 47.2 µM (inactive) |  | 34.8 µM (inactive) | > 100 µM (inactive) | 4.12 µM (inactive) | 35.3 µM (inactive) | 15.2 µM (inactive) | 21.4 µM (inactive) | 37.7 µM (inactive) | 36.3 µM (inactive) | 28.2 µM (inactive) |  | 22.9 µM (inactive)
CN(C)CCNc1ccc(NCC[N+](C)(C)Cc2ccc([N+](=O)[O-])cc2)c2c1C(=O)c1ccccc1C2=O | 10.8 µM (inactive) | > 25 µM (inactive) | > 25 µM (inactive) | 11.9 µM (inactive) | > 25 µM (inactive) |  | 18.6 µM (inactive) | 8.41 µM (inactive) |  | 18.3 µM (inactive) | > 25 µM (inactive) | > 25 µM (inactive) | > 25 µM (inactive) | 13.6 µM (inactive) | 14.1 µM (inactive) | 19.3 µM (inactive) | 4.86 µM (inactive) | > 25 µM (inactive) | 6.15 µM (inactive) | 16.2 µM (inactive)
OC(NN=C1CCCC1)(C(F)(F)Cl)C(F)(F)Cl | > 10 µM (inactive) | > 10 µM (inactive) | > 10 µM (inactive) | > 10 µM (inactive) | > 10 µM (inactive) | > 10 µM (inactive) | > 10 µM (inactive) | > 10 µM (inactive) |  | > 10 µM (inactive) | > 10 µM (inactive) | > 10 µM (inactive) | > 10 µM (inactive) | > 10 µM (inactive) | > 10 µM (inactive) | > 10 µM (inactive) | > 10 µM (inactive) | > 10 µM (inactive) | > 10 µM (inactive) | > 10 µM (inactive)
CCCCCCCCCCNC(=O)CCC(NC(=O)c1ccc(N(C)Cc2cnc3nc(N)nc(N)c3n2)cc1)C(=O)NCCCCCCCCCC (stereo not given) | 10 µM (inactive) | > 90.6 µM (inactive) | 13.6 µM (inactive) | 4.06 µM (inactive) | 27.8 µM (inactive) | 0.698 µM (active) | 43.7 µM (inactive) | 7.89 µM (inactive) |  | 4.47 µM (inactive) | 55.8 µM (inactive) | 11.6 µM (inactive) | 9.27 µM (inactive) | 5.62 µM (inactive) | 20.1 µM (inactive) | 3.09 µM (inactive) | 3.57 µM (inactive) | 4.2 µM (inactive) | 2.94 µM (inactive) | 3.05 µM (inactive)
COc1ccc(C2=Nn3c(nnc(Cc4ccc(Cl)cc4)c3=O)SC2)cc1 | 23.1 µM (inactive) | 19.8 µM (inactive) | 26.5 µM (inactive) | 27.9 µM (inactive) | 55.3 µM (inactive) | 24.3 µM (inactive) | 34.3 µM (inactive) | 46.9 µM (inactive) |  |  | > 100 µM (inactive) | 64 µM (inactive) | 41.8 µM (inactive) | 42.9 µM (inactive) | 59.3 µM (inactive) | 63.5 µM (inactive) | 60.3 µM (inactive) | 10.4 µM (inactive) |  | 45 µM (inactive)
CCN(CC)CCn1c(=O)c2c(C)c3oc4ccccc4oc3c(C)c2c1=O | > 100 µM (inactive) | > 100 µM (inactive) | > 100 µM (inactive) | > 100 µM (inactive) | > 100 µM (inactive) | > 100 µM (inactive) | > 100 µM (inactive) | > 100 µM (inactive) |  | > 100 µM (inactive) | > 100 µM (inactive) |  | > 100 µM (inactive) | > 100 µM (inactive) |  | > 100 µM (inactive) | > 100 µM (inactive) | > 100 µM (inactive) |  | 48.2 µM (inactive)
CCOC(=O)c1cn(-c2ccc(Cl)cc2)c(=O)n2c1nc1ccccc12 | > 100 µM (inactive) | > 100 µM (inactive) | > 100 µM (inactive) | > 100 µM (inactive) |  | > 100 µM (inactive) | > 100 µM (inactive) | > 100 µM (inactive) |  |  |  | > 100 µM (inactive) | > 100 µM (inactive) | > 100 µM (inactive) | > 100 µM (inactive) |  | > 100 µM (inactive) | > 100 µM (inactive) | > 100 µM (inactive) | > 100 µM (inactive)
O=C(O)CSc1nnc(-c2ccc(O)cc2)[nH]1 | > 100 µM (inactive) |  | > 100 µM (inactive) |  | > 100 µM (inactive) | > 100 µM (inactive) | > 100 µM (inactive) | > 100 µM (inactive) | > 100 µM (inactive) |  | > 100 µM (inactive) |  |  |  |  |  |  |  | > 100 µM (inactive) | > 100 µM (inactive)
CCOc1ccc(/N=N/S(=O)(=O)O)cc1 | > 100 µM (inactive) | > 100 µM (inactive) | > 100 µM (inactive) | > 100 µM (inactive) | > 100 µM (inactive) | > 100 µM (inactive) | > 100 µM (inactive) | > 100 µM (inactive) |  | > 100 µM (inactive) | > 100 µM (inactive) | > 100 µM (inactive) | > 100 µM (inactive) | > 100 µM (inactive) | > 100 µM (inactive) | > 100 µM (inactive) | > 100 µM (inactive) | > 100 µM (inactive) | > 100 µM (inactive) | > 100 µM (inactive)
Cc1c(C(=O)/C=C/c2ccc(Cl)cc2)[n+]([O-])c2ccccc2[n+]1[O-] | 11.1 µM (inactive) |  |  |  | 21.2 µM (inactive) | 4.6 µM (inactive) | 12.2 µM (inactive) | 15.8 µM (inactive) | 20.6 µM (inactive) |  | 18.2 µM (inactive) |  |  |  |  |  |  |  | 19.3 µM (inactive) | 12.6 µM (inactive)
COc1cc(CC2CCc3nc(N)nc(N)c3C2)cc(OC)c1OC (stereo not given) | 5.83 µM (inactive) |  | > 38.1 µM (inactive) | 0.527 µM (active) | 27.6 µM (inactive) | 5.3 µM (inactive) | 0.21 µM (active) | 24.8 µM (inactive) |  |  | > 45.7 µM (inactive) | 21.6 µM (inactive) | 9.55 µM (inactive) | 0.13 µM (active) | 1.79 µM (inactive) | > 60.5 µM (inactive) |  | 4.24 µM (inactive) | 0.236 µM (active) | 0.0536 µM (active)
CC(=O)OC(/C=C1/C=CC(=O)O1)COC(=O)c1ccccc1 (stereo not given) [ACETYLMELODORINOL] | > 31.2 µM (inactive) |  |  |  | > 31.2 µM (inactive) | 10.5 µM (inactive) | > 31.2 µM (inactive) | > 31.2 µM (inactive) | > 31.2 µM (inactive) |  | > 31.2 µM (inactive) |  |  |  |  |  |  |  |  | > 31.2 µM (inactive)

Reference: ChEMBL document CHEMBL1201862, “PubChem BioAssay data set” (2004)
